According to PubChem BioAssay AID256 (DTP/NCI, 2004):
Several values for one entry are separate records, joined by “and”; a condition that tells them apart may be missing. Identical values can stand only once. Toxic doses and inconclusive results are not listed. How the source made its calls: active means survival T/C of 150% or more; inactive means T/C below 125% in these data.

Tested on: CD2F1 mice, L1210 leukemia ip, survival T/C
Assay: NCI In Vivo Anticancer Drug Screen. Data for tumor model L1210 Leukemia (intraperitoneal) in CD2F1 (CDF1) mice
Conditions: higher = longer survival
In short: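 Each value reflects a quotient of treated over vehicle control outcomes in mice with a transplanted tumor.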

[1] = endpoint: mean survival time, dose: 100.0 mg/kg/injection, schedule: Q01DX001 (ip), vehicle: saline with Tween-80
[2] = endpoint: mean survival time, dose: 400.0 mg/kg/injection, schedule: Q01DX001 (ip), vehicle: saline with Tween-80
[3] = endpoint: mean survival time, dose: 100.0 mg/kg/injection, schedule: Q04DX003 (ip), vehicle: saline with Tween-80
[4] = endpoint: mean survival time, dose: 200.0 mg/kg/injection, schedule: Q04DX003 (ip), vehicle: saline with Tween-80
[5] = endpoint: mean survival time, dose: 400.0 mg/kg/injection, schedule: Q04DX003 (ip), vehicle: saline with Tween-80
[6] = endpoint: mean survival time, dose: 25.0 mg/kg/injection, schedule: Q01DX009 (ip), vehicle: saline with Tween-80
[7] = endpoint: mean survival time, dose: 50.0 mg/kg/injection, schedule: Q01DX009 (ip), vehicle: saline with Tween-80
[8] = endpoint: mean survival time, dose: 100.0 mg/kg/injection, schedule: Q01DX009 (ip), vehicle: saline with Tween-80
[9] = endpoint: mean survival time, dose: 100.0 mg/kg/injection, schedule: Q04DX002 (ip), vehicle: saline with Tween-80
[10] = endpoint: mean survival time, dose: 200.0 mg/kg/injection, schedule: Q04DX002 (ip), vehicle: saline with Tween-80
[11] = endpoint: mean survival time, dose: 200.0 mg/kg/injection, schedule: Q01DX009 (ip), vehicle: saline with Tween-80
[12] = endpoint: mean survival time, dose: 400.0 mg/kg/injection, schedule: Q01DX009 (ip), vehicle: saline with Tween-80
[13] = endpoint: mean survival time, dose: 400.0 mg/kg/injection, schedule: Q04DX002 (ip), vehicle: saline with Tween-80

Measured: T/C

COc1cc(NC(=O)O/N=C/c2ccccn2)cc(OC)c1OC
inactive: [1] 95 % of control | [2] 92 % of control

Cc1ccc([N+](=O)[O-])cc1NC(=O)C(Cl)(Cl)Cl
inactive: [3] 93 % of control | [4] 93 % of control | [5] 107 % of control

NC(=O)c1nc(C2OC(CO)C(O)C2O)cs1 (stereo not given)
inactive: endpoint: median survival time, dose: 50.0 mg/kg/injection, schedule: Q01DX005 (ip), vehicle: water 100 % of control | endpoint: median survival time, dose: 100.0 mg/kg/injection, schedule: Q01DX005 (ip), vehicle: water 102 % of control | endpoint: median survival time, dose: 200.0 mg/kg/injection, schedule: Q01DX005 (ip), vehicle: water 98 % of control | endpoint: median survival time, dose: 400.0 mg/kg/injection, schedule: Q01DX005 (ip), vehicle: water 101 % of control

[B-][N+](C)(C)Cc1ccccc1
inactive: [6] 94 % of control | [7] 88 % of control | [1] 101 % of control

Cc1cccc[n+]1CC(=O)c1ccc(-c2ccc(C(=O)C[n+]3ccccc3C)cc2)cc1
inactive: endpoint: mean survival time, dose: 0.15 mg/kg/injection, schedule: Q04DX003 (ip), vehicle: Klucel (hydroxypropylcellulose) (HPC) 94 % of control | endpoint: mean survival time, dose: 0.3 mg/kg/injection, schedule: Q04DX003 (ip), vehicle: Klucel (hydroxypropylcellulose) (HPC) 95 % of control | endpoint: mean survival time, dose: 0.6 mg/kg/injection, schedule: Q04DX003 (ip), vehicle: Klucel (hydroxypropylcellulose) (HPC) 97 % of control

COC(=O)C(CCCCN=Cc1ccccc1O)N=Cc1ccccc1O.[Ni] (stereo not given)
inactive: endpoint: mean survival time, dose: 12.5 mg/kg/injection, schedule: Q01DX009 (ip), vehicle: saline with Tween-80 96 % of control | [6] 96 % of control | [7] 88 % of control and 94 % of control | [8] 93 % of control

O=C(COc1ccc(F)cc1)OCCOC(=O)COc1ccc(F)cc1
inactive: [9] 100 % of control | [10] 95 % of control

CC(=O)OC(C)(C)/C=C/C(=O)[C@](C)(O)[C@H]1[C@H](O)C[C@@]2(C)[C@@H]3CC=C4[C@@H](CC[C@H](O)C4(C)C)[C@]3(CO)C(=O)C[C@]12C
inactive: endpoint: mean survival time, dose: 0.6 mg/kg/injection, schedule: Q01DX009 (ip), vehicle: saline with Tween-80 105 % of control | endpoint: mean survival time, dose: 0.63 mg/kg/injection, schedule: Q04DX003 (ip), vehicle: saline with Tween-80 105 % of control | endpoint: mean survival time, dose: 1.2 mg/kg/injection, schedule: Q01DX009 (ip), vehicle: saline with Tween-80 105 % of control | endpoint: mean survival time, dose: 1.25 mg/kg/injection, schedule: Q04DX003 (ip), vehicle: saline with Tween-80 112 % of control | endpoint: mean survival time, dose: 2.4 mg/kg/injection, schedule: Q01DX009 (ip), vehicle: saline with Tween-80 107 % of control | endpoint: mean survival time, dose: 2.5 mg/kg/injection, schedule: Q04DX003 (ip), vehicle: saline with Tween-80 114 % of control

CC(=O)[O][Hg][O]C(C)=O
inactive: endpoint: mean survival time, dose: 1.25 mg/kg/injection, schedule: Q01DX009 (ip), vehicle: saline sonified 95 % of control | endpoint: mean survival time, dose: 2.5 mg/kg/injection, schedule: Q01DX009 (ip), vehicle: saline sonified 103 % of control | endpoint: mean survival time, dose: 5.0 mg/kg/injection, schedule: Q01DX009 (ip), vehicle: saline sonified 90 % of control | endpoint: mean survival time, dose: 5.0 mg/kg/injection, schedule: Q04DX003 (ip), vehicle: saline with Tween-80 106 % of control

O=C(NC(=S)Nc1cc(Cl)ccc1O)c1cccc(Br)c1
inactive: [1] 86 % of control and 89 % of control | [8] 96 % of control and 101 % of control | [9] 89 % of control and 103 % of control | [3] 91 % of control | endpoint: mean survival time, dose: 200.0 mg/kg/injection, schedule: Q01DX001 (ip), vehicle: saline with Tween-80 86 % of control | [11] 97 % of control and 98 % of control | [10] 89 % of control and 100 % of control | [4] 96 % of control | [2] 86 % of control | [12] 116 % of control and 101 % of control | [13] 94 % of control and 95 % of control | [5] 95 % of control

CNC(=S)SCCC(=O)O
inactive: [9] 113 % of control | [10] 102 % of control | [13] 102 % of control

COc1cccc(CCNC(=O)CC#N)c1
inactive: [8] 97 % of control | [11] 98 % of control | [12] 101 % of control

C(=N/c1ccccn1)/c1ccc(/C=N\c2ccccn2)cc1
inactive: endpoint: mean survival time, dose: 100.0 mg/kg/injection, schedule: Q04DX003 (ip), vehicle: Klucel (hydroxypropylcellulose) (HPC) 94 % of control | endpoint: mean survival time, dose: 200.0 mg/kg/injection, schedule: Q04DX003 (ip), vehicle: Klucel (hydroxypropylcellulose) (HPC) 94 % of control | endpoint: mean survival time, dose: 400.0 mg/kg/injection, schedule: Q04DX003 (ip), vehicle: Klucel (hydroxypropylcellulose) (HPC) 102 % of control

COc1cc(N=Nc2ccccc2C(=O)O)ccc1N(CCCl)CCCl
inactive: endpoint: mean survival time, dose: 6.25 mg/kg/injection, schedule: Q01DX009 (ip), vehicle: Klucel (hydroxypropylcellulose) (HPC) 99 % of control | endpoint: mean survival time, dose: 12.5 mg/kg/injection, schedule: Q01DX009 (ip), vehicle: Klucel (hydroxypropylcellulose) (HPC) 108 % of control | endpoint: mean survival time, dose: 25.0 mg/kg/injection, schedule: Q01DX009 (ip), vehicle: Klucel (hydroxypropylcellulose) (HPC) 123 % of control

CC[N+]1(Cc2ccccc2)CC2(CCCCC2)ON2C1CC(C)C2(C)C (stereo not given)
inactive: [6] 92 % of control | [7] 93 % of control

CNC1CCCCC1[N+](C)(C)C (stereo not given)
inactive: endpoint: mean survival time, dose: 5.0 mg/kg/injection, schedule: Q01DX009 (ip), vehicle: saline 98 % of control | endpoint: mean survival time, dose: 5.0 mg/kg/injection, schedule: Q04DX003 (ip), vehicle: saline 103 % of control | endpoint: mean survival time, dose: 10.0 mg/kg/injection, schedule: Q01DX009 (ip), vehicle: saline 101 % of control | endpoint: mean survival time, dose: 10.0 mg/kg/injection, schedule: Q04DX003 (ip), vehicle: saline 101 % of control | endpoint: mean survival time, dose: 20.0 mg/kg/injection, schedule: Q01DX009 (ip), vehicle: saline 96 % of control | endpoint: mean survival time, dose: 20.0 mg/kg/injection, schedule: Q04DX003 (ip), vehicle: saline 98 % of control

CCCCC(Sc1n[nH]c(=O)[nH]c1=O)C(=O)OCC (stereo not given)
inactive: endpoint: mean survival time, dose: 12.5 mg/kg/injection, schedule: Q01DX005 (ip), vehicle: distilled water + Tween-80 96 % of control | endpoint: mean survival time, dose: 25.0 mg/kg/injection, schedule: Q01DX005 (ip), vehicle: distilled water + Tween-80 100 % of control | endpoint: mean survival time, dose: 50.0 mg/kg/injection, schedule: Q01DX005 (ip), vehicle: distilled water + Tween-80 96 % of control | endpoint: mean survival time, dose: 100.0 mg/kg/injection, schedule: Q01DX005 (ip), vehicle: distilled water + Tween-80 103 % of control | endpoint: mean survival time, dose: 200.0 mg/kg/injection, schedule: Q01DX005 (ip), vehicle: distilled water + Tween-80 97 % of control

CN(Cc1ccccc1)/C(N)=N/N
inactive: endpoint: mean survival time, dose: 75.0 mg/kg/injection, schedule: Q01DX001 (ip), vehicle: saline 102 % of control | endpoint: mean survival time, dose: 150.0 mg/kg/injection, schedule: Q01DX001 (ip), vehicle: saline 107 % of control
